Counter-ions that a name gives are not always drawn. Like-named read-outs stand apart in the source and are kept apart here.
Columns and labels:
[1] = Pharmacokinetic study in rats (plasma and red blood cell); type: in vivo; details: male, Sprague-Dawley, rat, oral, 7.2 mg/kg
Procedure: Rats (Sprague-Dawley, male, 220-280 g) were dosed with GBT-440 (HCl salt) and one of three compounds corresponding to Example 27, 29, and 38. The rats received oral (7.2 mpk) doses of the compound. Rats were fasted overnight before the experiments and provided with food four hours after dosing. The oral dosing formulations was prepared as follows: approximately 10 mg of compound was weighed precisely to an appropriate size of container, to which was added 2 mL of vehicle 0.5% methylcellulose in water and 8 μL 0.5% sodium dodecyl sulfate. The mixture was then transferred into a glass vial, and volume adjusted to appropriate volume with 0.5% methylcellulose to obtain a final concentration of 0.72 mg·mL^−1, and then vortexed and sonicated briefly.
Whole blood sample collection: Blood samples ([…]) were collected at pre-dose, 15, 30 min, 1, 2, 4, 8, 12 and 24 h via jugular vein into tubes and anticoagulated with 3.2% TSC (trisodium citrate). The proportion of anticoagulant and blood was 1:9 (v/v). The sampling time was recorded accordingly. The tubes were gently inverted several times to ensure mixing. Then 10 μL doses of whole blood sample was transferred to a new EP tube and duplicated in wet ice.
Plasma sample collection: The remaining whole blood was processed by centrifugation at 5,500 rpm for 10 min. The supernate was collected. All these whole blood and plasma samples were kept below −20° C. for 1 h prior to analysis.
(§1) Plasma sample preparation: An aliquot of 20 μL of sample was transferred to sample treatment tube (1.5 mL EP tube), and then 100 μL ACN (0.5% FA) containing Verapamil, 5 ng·mL^−1 and Glibenclamide, 50 ng·mL^−1 for protein precipitation was added. The mixture was vortexed for 30 min, and then centrifuged at 13000 rpm for 5 min at room temperature. After that, 70 μL of supernatant was transferred to a 96-Well Plate, to which 70 μL of water added and then vortexed for 10 min at room temperature. An aliquot of 10 μL of this mixture was analyzied using LC-MS/MS.
as §1, with “Whole blood” for “Plasma”, “10” for “20”, “500” for “100”, “water was” for “water”, “analyzed” for “analyzied”
Plasma and red blood cell concentration-time data were processed by linear regression analysis. All pharmacokinetic parameters were calculated using non-compartment model of Pharsight Phoenix 6.3.
Red blood cell concentrations were calculated according to the method below: Mass balance equation: Cb·VB=Cp·Vp+CBC·VBC Where, Cb=Concentration of whole blood; VB=Volume of whole blood; Cp=Concentration of plasma; Vp=Volume of plasma; CBC=Concentration of blood cell; VBC=Volume of blood cell. VBC=H·VB, where H is the hematocrit number. Vp=(1−H)·VB

[2] = Solubility in JP1, JP2 and FaSSIF buffers; type: physicochemical; details: 25 °C, thermodynamic from solid, room temperature
Procedure: Conditions: 1. JP1 buffer (84 mM HCl, 34.22 mM NaCl, pH 1.2); 2. JP2 buffer (50 mM phosphate buffer at pH 6.8); 3. FaSSIF buffer, pH 6.5 (Preparation: In about 0.9 L of purified water dissolve 0.420 g of NaOH (pellets), 4.470 g of NaH2PO4 (dihydrate), 6.186 g of NaCl; Adjust the pH to 6.5 with Sodium hydroxide 1N or Hydrochloric acid 1N, to make up to volume (1 L) with purified water at room temperature; Add 0.224 g of SIF Powder Original to about 0.5 L of pH 6.5 blank buffer and stir until powder is completely dissolved; Let stand for 2 hour. FaSSIF buffer is now ready to use.
Procedures: 1. accurately weighed about 2 mg test compounds and controls in whatman vials, then transferred 450 μL buffer in to the vials; 2. Filter pistons of miniuniprep vials were placed and compressed to the position of the liquid level to allow for contact. Vortexed for 2 minutes; 3. […] Miniunipreps were compressed to prepare the filtrates for injection into HPLC system; 5. Diluted the filtrates with buffer by a factor of 50 fold to make diluents; 6. Determined the test compound concentration of the diluents and filtrates using HPLC-UV.

[3] = red blood cells, red blood cell (calculated by mass balance from whole blood and plasma), read-out: AUC0-24 h RBC
[4] = red blood cells, red blood cell (calculated by mass balance from whole blood and plasma), read-out: Cmax RBC
[5] = red blood cells, red blood cell, read-out: T1/2 RBC (converted)
[6] = plasma, read-out: AUC0-24 h Plasma
[7] = plasma, read-out: T1/2 Plasma (converted)
[8] = aqueous buffer, JP2 buffer (50 mM phosphate) pH 6.8, 24 hr, read-out: JP2 Solubility
[9] = simulated gastric fluid, JP1 buffer pH 1.2, 24 hr, read-out: JP1 Solubility
[10] = FaSSIF buffer pH 6.5, 24 hr, read-out: FaSSIF Solubility

Row | SMILES | AUC(0-t) [1, 3] [µg·h/mL] | Cmax [1, 4] [µg/mL] | half-life [1, 5] [h] | AUC(0-t) [1, 6] [µg·h/mL] | Cmax ([1]; plasma, read-out: Cmax Plasma) [µg/mL] | half-life [1, 7] [h] | solubility at 24 h [2, 8] [µg/mL] | solubility at 24 h [2, 9] [µg/mL] | solubility at 24 h [2, 10] [µg/mL]
1 | Cl.[2H]C([2H])(Oc1cc(F)cc(O)c1C=O)c1cccnc1-c1ccnn1C(C)C [Example 27, 4-fluoro-2-hydroxy-6-((2-(1-isopropyl-1H-pyrazol-5-yl)pyridin-3-yl)methoxy-d2)benzaldehyde hydrochloric acid] | 566 | 50.3 | 26 | 10.7 | 0.742 | 18 | 8.16 | 623 | 35.7
2 | Cl.[2H]C([2H])(Oc1cccc(O)c1C=O)c1cccnc1-n1ccnc1C(C)C [Example 29, 2-hydroxy-6-((2-(2-isopropyl-1H-imidazol-1-yl)pyridin-3-yl)methoxy-d2)benzaldehyde hydrochloric acid] | 12000 | 1240 | 10 | 42.6 | 4.01 | 12 | 74.4 | > 4440 | 591
3 | CC(C)n1nccc1-c1ncccc1COc1cccc(O)c1C=O [GBT-440 (HCl salt), reference compound] | 3440 | 216 | 17 | 22.8 | 2.15 | 19 | 28 | 986 | 95.7

Source: patent publication US10787430B2, “Hemoglobin modifier compounds and uses thereof” (FronThera U.S. Pharmaceuticals LLC, priority 2016, dated 2020)
